Results reported in PubChem BioAssay (NCI).
“And” between values parts separate entries of the source, which are not always exact repeats. Equal values may be shown once.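 48-hour exposure; five concentrations; linearly interpolated endpoints. GI50 = concentration required for 50% inhibition of growth. TGI marks complete inhibition of growth.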

What was measured:
Assay in all cases: growth of human tumour cells (NCI), 48 h
[1] = test system: RPMI-8226 leukemia
[2] = test system: SF-268 CNS
[3] = test system: A498 renal
[4] = test system: HT29 colon
[5] = test system: UO-31 renal
[6] = test system: PC-3 prostate
[7] = test system: HS 578T breast
[8] = test system: MOLT-4 leukemia
[9] = test system: SK-MEL-5 melanoma
[10] = test system: OVCAR-5 ovarian

| Compound | GI50 [1] | TGI [1] | GI50 [2] | TGI [2] | GI50 [3] | TGI [3] | GI50 [4] | TGI [4] | GI50 [5] | TGI [5] | GI50 [6] | TGI [6] | GI50 [7] | TGI [7] | GI50 [8] | TGI [8] | GI50 [9] | TGI [9] | GI50 [10] | TGI [10] |
| --- | --- | --- | --- | --- | --- | --- | --- | --- | --- | --- | --- | --- | --- | --- | --- | --- | --- | --- | --- | --- |
| C[C@H]1CC2=CC(=O)CC[C@]2(C)[C@H]2CC[C@@]3(C)[C@@H](CC[C@]3(C)O)[C@H]12 | 7.58 µM | 38 µM | 33.3 µM | > 100 µM | 28.2 µM | > 82.8 µM | 44.7 µM | > 100 µM | 20.6 µM | > 78.5 µM | 8.65 µM | 99.7 µM | 30.7 µM | > 89 µM | 19.3 µM | 50.6 µM | 14.8 µM | 33.3 µM | 55.9 µM | > 100 µM |
| COc1cc(/C=C/c2cc(/C=C/c3ccc(O)c(OC)c3)[nH]c(=O)n2)ccc1O | 2.1 µM | 5.68 µM | 4.58 µM | > 100 µM | 3.11 µM | 25.2 µM | 1.3 µM | 2.67 µM | 3.71 µM | 58.6 µM | 3.2 µM | 18.6 µM | 1.8 µM | 6.75 µM | 2.55 µM | 11.7 µM | 3.7 µM | 36.1 µM | 10 µM | 28.4 µM |
| COc1cc(CC2CC(c3ccc4c(c3)OCO4)OC2=O)cc(OC)c1OC (centres undefined) |  | > 100 µM |  | > 100 µM |  | > 100 µM |  | > 100 µM |  | 82.4 µM |  | > 100 µM |  | > 100 µM |  | > 100 µM |  | > 100 µM |  | > 100 µM |
| S=C(Nc1ccccc1)N1CCn2c1nsc2=Nc1ccccc1 | 40.9 µM | > 100 µM | > 100 µM | > 100 µM | 77.9 µM | > 100 µM | > 100 µM | > 100 µM | > 100 µM | > 100 µM | 53.3 µM | > 100 µM | 53.4 µM | > 100 µM | 56.5 µM | > 100 µM | 37.8 µM | > 100 µM | > 100 µM | > 100 µM |
| O=S1(=O)CC(Br)C(Br)C1 (centres undefined) | 12.3 µM | 41.2 µM | 21.5 µM | > 100 µM | 25.1 µM | 55.1 µM | 3.71 µM | 11.3 µM | 3.77 µM | 14.7 µM | 10.7 µM | 26.3 µM | 5.5 µM | 76.3 µM | 3.27 µM | 16.2 µM | 2.3 µM | 10.3 µM | 15.8 µM | 54.9 µM |
| CC(C)(F)C[C@H](N[C@@H](c1ccc(-c2ccc(S(C)(=O)=O)cc2)cc1)C(F)(F)F)C(=O)NC1(C#N)CC1 | > 100 µM | > 100 µM | 22 µM and 18.8 µM | 55 µM and 48.9 µM | 33.6 µM and 28 µM | 55 µM and > 100 µM | > 100 µM | > 100 µM | 49.3 µM and 23.2 µM | 55 µM and > 100 µM | 36.9 µM and 27.9 µM | 55 µM and > 100 µM | 13.6 µM and 21.1 µM | 55 µM and 63.9 µM | > 100 µM | > 100 µM | > 55 µM and 73.1 µM | > 100 µM | > 100 µM | > 100 µM |
| COc1cc(/C=C\c2cc(OC)c(OC)c(OC)c2)cc(NS(=O)(=O)c2cccc(Cl)c2)c1OC | 0.0597 µM | > 100 µM | 0.202 µM | > 100 µM | 0.0218 µM | 0.0798 µM | 0.0441 µM | > 100 µM | 0.0937 µM | > 100 µM | 0.0452 µM | > 100 µM | 0.0795 µM | > 100 µM | 0.0456 µM | > 100 µM | 0.229 µM | 0.519 µM | 0.641 µM | > 100 µM |
| C#CCOc1cccc(Nc2ncc3ncn(C4CCN(C(=O)CCl)C4)c3n2)c1 (centres undefined) | > 62.5 µM | > 62.5 µM | > 62.5 µM | > 62.5 µM | > 62.5 µM | > 62.5 µM | > 62.5 µM | > 62.5 µM | 37.4 µM | > 62.5 µM | > 62.5 µM | > 62.5 µM | > 62.5 µM | > 62.5 µM | 11.3 µM | > 62.5 µM | > 62.5 µM | > 62.5 µM | > 62.5 µM | > 62.5 µM |
| CC[C@H](C)[C@H](NC(=O)c1nccn1C)C(=O)N(C)[C@H](C[C@@H](OC(C)=O)c1nc(C(=O)N[C@@H](Cc2ccccc2)C[C@H](C)C(=O)OC)cs1)C(C)C | 0.531 µM | 12.1 µM | 1.43 µM | > 33.3 µM | 1.11 µM | > 33.3 µM | 1 µM | 11.1 µM | 2.9 µM | > 33.3 µM | 1.11 µM | > 33.3 µM | 1.11 µM | > 33.3 µM | 1.65 µM | > 33.3 µM | 0.668 µM | 3.67 µM | 2.23 µM | > 33.3 µM |
| CN1N=Nc2c(C(F)(F)F)nn(-c3ccccc3)c2N(C)C1=O | > 56 µM | > 100 µM | > 100 µM | > 100 µM | > 100 µM | > 100 µM | > 100 µM | > 100 µM | > 100 µM | > 100 µM | > 100 µM | > 100 µM | > 100 µM | > 100 µM |  | > 45.3 µM | > 100 µM | > 100 µM | > 100 µM | > 100 µM |
